The assay has as its system PMA-differentiated THP-1 cells. The experiment in a line: IL-1β production in PMA-differentiated THP-1 cells stimulated with gramicidin (hTHP-1 assay containing 2% fetal bovine serum; Procedures 1 and 2). It counts as cell-based, human. The note with it: 2% fetal bovine serum. The gist of the method: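 PMA 20 ng/ml 16-18 h → trypsinise → 50,000 cells/well, RPMI/2% FBS; cpd 1 h (11-pt, 100–0.0017 μM; DMSO 0.37%); gramicidin 5 μM, 2 h; spin; supernatant IL-1β via HTRF.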

[1] abbreviates: Homo sapiens, THP-1, Table B1, class symbols, read-out: Average IC50 of compounds in hTHP-1 assay: hTHP-1 IC50.
The mark [2] stands for this setting: Homo sapiens, THP-1, Table B3, hTHP-1 assay, class symbols, read-out: IC50.
Where [3] appears, read: Homo sapiens, THP-1, Table B1, numeric bounds, read-out: Average IC50 of compounds in hTHP-1 assay: hTHP-1 IC50.
Where [4] appears, read: Homo sapiens, THP-1, Table B2, class symbols, read-out: hTHP-1 IC50.
The mark [5] stands for this setting: Table B4, class symbols, read-out: hTHP-1 IC50.
Setting [6] is: Table B2, class symbols, read-out: hTHP-1 IC50.
Where [7] appears, read: Table B1, class symbols, read-out: Average IC50 of compounds in hTHP-1 assay: hTHP-1 IC50.

Where two headings read alike, the source gives them in different places.

For `CC(C)(O)c1ncc(S(N)(=O)=NC(=O)Nc2c3c(nc4c2CCC42CC2)CCC3)s1` (stereo not shown) [Compound 136, 2-(2-hydroxypropan-2-yl)-N′-((1′,5′,6′,7′-tetrahydro-2′H-spiro[cyclopropane-1,3′-dicyclopenta[b,e]pyridin]-8′-yl)carbamoyl)thiazole-5-sulfonimidamide], the IC50 (commonly the concentration that gives 50% inhibition) under setting [1] lay in the range of 0.04 to 0.2 µM.
On to `CCn1nc(S(N)(=O)=NC(=O)Nc2c(C)c(C(F)(F)F)nc3c2CCC3)cc1CO` (stereo not shown) [Example 588, 1-Ethyl-5-(hydroxymethyl)-N′-((3-methyl-2-(trifluoromethyl)-6,7-dihydro-5H-cyclopenta[b]pyridin-4-yl)calbamoyl)-1H-pyrazole-3-sulfonimidamide], for which the IC50 under setting [2] is 1 to 5 µM.
As for `CNS(=O)(=NC(=O)Nc1c2c(nc3c1CCC3)CCC2)c1ccc(CN(C)C)cc1` (stereo not shown) [Compound 120, 4-((Dimethylamino)methyl)-N′-((1,2,3,5,6,7-hexahydrodicyclopenta[b,e]pyridin-8-yl)carbamoyl)-N-methylbenzenesulfonimidamide], under setting [1], the IC50 fell in the range of 0.2 to 1 µM.
The same measure, in the same setting: the same measure for `CC(C)(O)c1ccc(S(N)(=O)=NC(=O)Nc2c3c(nc4c2CCC4)CCC3)cn1` (single isomer, unassigned) [Compound 156b, (R) or (S)-N′-((1,2,3,5,6,7-hexahydrodicyclo-penta[b,e]pyridin-8-yl)carbamoyl)-6-(2-hydroxypropan-2-yl)pyridine-3-sulfonimidamide]: 1 to 5 µM.
As for `CC(C)n1ccc(S(N)(=O)=NC(=O)Nc2c3c(nc4c2CCC4)CCC3)n1` (single isomer, unassigned) [Compound 119b, (S) or (R)-N′-((1,2,3,5,6,7-hexahydrodicyclo-penta[b,e]pyridin-8-yl)carbamoyl)-1-isopropyl-1H-pyrazole-3-sulfonimidamide], the IC50 under setting [3] is over 30 µM.
Take `Cc1c(C(F)(F)F)nc2c(c1NC(=O)N=S(N)(=O)c1ccn(C(F)F)n1)CCC2` (stereo not shown) [Compound 621, 1-(Difluoromethyl)-N′-((3-methyl-2-(trifluoromethyl)-6,7-dihydro-5H-cyclopenta[b]pyridin-4-yl)carbamoyl)-1H-pyrazole-3-sulfonimidamide]: the IC50 under setting [4] lay in the range of 1 to 5 µM.
As to `Cc1c(C(F)(F)F)nc2c(c1NC(=O)N=S(N)(=O)c1nn(C(C)C)cc1F)CCC2` (single isomer, unassigned) [Example 790, (S) or (R)-4-fluoro-1-isopropyl-N′-((3-methyl-2-(trifluoromethyl)-6,7-dihydro-5H-cyclo-penta [b]pyridin-4-yl)carbamoyl)-1H-pyrazole-3-sulfonimidamide], under setting [5], the IC50 was 5 to 30 µM.
For `CC1CCc2nc3c(c(NC(=O)N=S(N)(=O)c4cnc(C(C)(C)O)s4)c21)CCC3` (stereo not shown) [Compound 151, 2-(2-hydroxypropan-2-yl)-N′-((1-methyl-1,2,3,5,6,7-hexahydrodicyclopenta[b,e]pyridin-8-yl)carbamoyl)thiazole-5-sulfonimidamide], the half-inhibitory concentration (IC50) under setting [1] is 0.2 to 1 µM.
Same read-out and setting: the same measure for `CC1CCc2c1nc1c(c2NC(=O)N=S(N)(=O)c2ccn(C(C)C)n2)CCC1` (stereo not shown) [Compound 129, 1-isopropyl-N′-((3-methyl-1,2,3,5,6,7-hexahydrodicyclopenta[b,e]pyridin-8-yl)carbamoyl)-1H-pyrazole-3-sulfonimidamide]: 0.2 to 1 µM.
Turning to `Cc1c(C(C)C)nc2c(c1NC(=O)N=S(N)(=O)c1cnc(C(C)(C)O)s1)CCC2` (single isomer, unassigned) [Compound 650a, (R) or (S)-2-(2-Hydroxypropan-2-yl)-N′-((2-isopropyl-3-methyl-6,7-dihydro-5H-cyclopenta[b]pyridin-4-yl)carbamoyl)thiazole-5-sulfonimidamide], under setting [6], the IC50 lay within 0.04 to 0.2 µM.
For `Cc1c(C(F)(F)F)nc2c(c1NC(=O)N=[S@@](N)(=O)c1cnc(C(C)(C)O)s1)CCC2C` (stereo partly shown) [Compound 608d], the IC50 under setting [4] fell in the range of 1 to 5 µM.
Regarding `CCC1CCc2c1nc1c(c2NC(=O)N=S(N)(=O)c2ccn(C(F)F)n2)CCC1` (single isomer, unassigned) [Compound 668c, (R, R) or (R, S) or (S, R) or (S, S)-1-(Difluoromethyl)-N′-((3-ethyl-1,2,3,5,6,7-hexahydrodicyclopenta [b,e]pyridin-8-yl)carbamoyl)-1H-pyrazole-3-sulfonimidamide], the half-inhibitory concentration (IC50) under setting [4] was 5 to 30 µM.
As to `NS(=O)(=NC(=O)Nc1c2c(nc(C(F)(F)F)c1-c1ccccc1)CCC2)c1nn(C(F)F)cc1F` (single isomer, unassigned) [Example 766, (S) or (R)-1-(difluoromethyl)-4-fluoro-N′-((3-phenyl-2-(trifluoromethyl)-6,7-dihydro-5H-cyclopenta[b]pyridin-4-yl)carbamoyl)-1H-pyrazole-3-sulfonimidamide], the IC50 under setting [5] was 1 to 5 µM.
Consider `CC1(C)CCc2c1nc1c(c2NC(=O)N=S(N)(=O)c2cnc(C(C)(O)CO)s2)CCC1` (single isomer, unassigned) [Compound 201b, (S, R) or (R, R) or (R, S) or (S, S)-2-(1,2-Dihydroxypropan-2-yl)-N′-((3,3-dimethyl-1,2,3,5,6,7-hexahydrodicyclopenta [b,e]pyridin-8-yl)carbamoyl) thiazole-5-sulfonimidamide], for which, under setting [6], the IC50 lay within 0.04 to 0.2 µM.
Turning to `CC1CCc2c1nc1c(c2NC(=O)N=S(N)(=O)c2cc(C(C)(C)O)cs2)CCC1C` (single isomer, unassigned) [Compound 131d, (S,R,R) or (S,S,S) or (S,R,S) and (S,S,R)-N′-((3,5-dimethyl-1,2,3,5,6,7-hexa-hydrodicyclopenta[b,e]pyridin-8-yl)carbamoyl)-4-(2-hydroxypropan-2-yl)thio-phene-2-sulfonimidamide], the IC50 under setting [7] is 5 to 30 µM.
Consider `Cc1c(C(F)(F)F)nc2c(c1NC(=O)N=S(N)(=O)c1ccn(C)n1)CCC2` (single isomer, unassigned) [Example 694, (S) or (R)-1-Methyl-N′-((3-methyl-2-(trifluoromethyl)-6,7-dihydro-5H-cyclopenta[b]pyridin-4-yl)carbamoyl)-1H-pyrazole-3-sulfonimidamide], for which the IC50 (Homo sapiens, THP-1, Table B3, hTHP-1 assay, numeric values, read-out: IC50) was over 30 µM.
For `CC1CCc2c1nc1c(c2NC(=O)N=S(N)(=O)c2cnc(C(C)(C)O)s2)CCC1` (single isomer, unassigned) [Compound 162ab, (S,R) or (S,S)-2-(2-hydroxypropan-2-yl)-N′-((3-methyl-1,2,3,5,6,7-hexahydrodicyclo-penta[b,e]pyridin-8-yl)carbamoyl)thiazole-5-sulfonimidamide], the IC50 under setting [7] was in the range of 1 to 5 µM.
Consider `Cc1c(C(F)(F)F)nc2c(c1NC(=O)N=S(N)(=O)c1cc(CO)n(C(C)C)n1)CCC2` (single isomer, unassigned) [Example 719, (S) or (R)-5-(hydroxymethyl)-1-isopropyl-N′-((3-methyl-2-(trifluoromethyl)-6,7-dihydro-5H-cyclopenta[b]pyridin-4-yl)carbamoyl)-1H-pyrazole-3-sulfonimidamide], for which the IC50 under setting [2] is 1 to 5 µM.
On to `CC(C)(O)c1ccc(S(N)(=O)=NC(=O)Nc2c3c(nc4c2CCC4)CCC3)cn1` (single isomer, unassigned) [Compound 156a, (S) or (R)-N′-((1,2,3,5,6,7-hexahydrodicyclo-penta[b,e]pyridin-8-yl)carbamoyl)-6-(2-hydroxypropan-2-yl)pyridine-3-sulfonimidamide], for which the IC50 under setting [3] is over 30 µM.
Take `NS(=O)(=NC(=O)Nc1c2c(nc3c1CCC3)CCC2)c1ccn(CC(F)(F)F)n1` (stereo not shown) [Compound 685, N′-((1,2,3,5,6,7-hexahydrodicyclopenta[b,e]pyridin-8-yl)carbamoyl)-1-(2,2,2-trifluoroethyl)-1H-pyrazole-3-sulfonimidamide]: under setting [4], the IC50 lay in the range of 1 to 5 µM.
On to `Cc1c(C2CC2)nc2c(c1NC(=O)N=S(N)(=O)c1cc(C(C)(C)O)cs1)CCC2` (stereo not shown) [Compound 175, N′-((2-cyclopropyl-3-methyl-6,7-dihydro-5H-cyclopenta[b]pyridin-4-yl)carbamoyl)-4-(2-hydroxypropan-2-yl)thiophene-2-sulfonimidamide], for which the IC50 under setting [1] lay within 0.2 to 1 µM.
Same read-out and setting: the same measure for `CC(C)(O)c1cc(F)c(S(N)(=O)=NC(=O)Nc2c3c(nc4c2CCC4(C)C)CCC3)s1` (stereo not shown) [Compound 102, N′-((3,3-dimethyl-1,2,3,5,6,7-hexahydrodicyclopenta[b,e]pyridin-8-yl)carbamoyl)-3-fluoro-5-(2-hydroxypropan-2-yl)thiophene-2-sulfonimidamide]: 0.04 to 0.2 µM.
For `CC(C)(O)c1ncc(S(N)(=O)=NC(=O)Nc2c3c(nc4c2CCC4F)CCC3)s1` (single isomer, unassigned) [Compound 183d, (S,R) or (S,S)-N′-((3-fluoro-1,2,3,5,6,7-hexahydrodicyclo-penta[b,e]pyridin-8-yl)carbamoyl)-2-(2-hydroxypropan-2-yl)thiazole-5-sulfonimidamide], the IC50 (Table B1, numeric bounds, read-out: Average IC50 of compounds in hTHP-1 assay: hTHP-1 IC50) was over 30 µM.
With `CC(C)c1ncc(F)c(C(C)C)c1NC(=O)N=S(N)(=O)c1ncc(C(C)(C)O)s1` (stereo not shown) [Compound 165, N′-((5-fluoro-2,4-diisopropylpyridin-3-yl)carbamoyl)-5-(2-hydroxypropan-2-yl)thiazole-2-sulfonimidamide], the IC50 under setting [7] lay in the range of 1 to 5 µM.
Consider `CC(C)(O)c1csc(S(N)(=O)=NC(=O)Nc2cc(CC(F)(F)F)nc3c2CCC3)c1` (single isomer, unassigned) [Compound 607b, (R) or (S)-4-(2-Hydroxypropan-2-yl)-N′-((2-(2,2,2-trifluoroethyl)-6,7-dihydro-5H-cyclopenta[b]pyridin-4-yl)carbamoyl) thiophene-2-sulfonimidamide], for which the IC50 under setting [4] was 1 to 5 µM.

(Values after patent US20230031406A1, “COMPOUNDS AND COMPOSITIONS FOR TREATING CONDITIONS ASSOCIATED WITH NLRP ACTIVITY” (Novartis AG, priority 2018, published 2023).)
